# Measurements published in patent US5385917A, “Carboxylic acid derivatives” (Mitsubishi Kasei Corporation, priority 1992, dated 1995).
# Biological target: T1, Human steroid 5α-reductase (Homo sapiens, UniProt P31213)
# T1 construct: The suspension was used as the source of 5α-reductase; from tissue; host or cells: frozen human prostate, whole homogenate in 0.1 M phosphate buffer pH 5.5
# T1 sequence (P31213 1-254): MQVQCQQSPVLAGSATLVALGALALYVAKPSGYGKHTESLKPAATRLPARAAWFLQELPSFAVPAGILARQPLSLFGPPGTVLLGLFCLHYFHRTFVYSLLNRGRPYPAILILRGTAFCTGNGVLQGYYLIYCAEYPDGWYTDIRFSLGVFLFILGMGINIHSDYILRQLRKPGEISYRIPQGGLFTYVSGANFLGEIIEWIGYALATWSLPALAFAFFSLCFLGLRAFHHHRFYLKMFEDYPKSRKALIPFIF
# Experiment: Human steroid 5α-reductase inhibiting effect using human prostatic tissue
# Type: biochemical
# Settings: human prostate homogenate, pH 5.5, 50 nM [3H]testosterone, NADPH, 37° C., 10 min; Table 5
# Source text: Human steroid 5α-reductase inhibiting effect was examined on the compounds of the present invention using human prostatic tissue.
# Frozen human prostate was thawed on ice and minced into small pieces (~5mm^3). The minced tissue was homogenized with a Polytron homogenizer (Kinematica, Switzerland) in 40 vol. of 0.1M phosphate buffer at pH 5.5. The suspension was used as the source of 5α-reductase.
# For this test, DMSO solutions containing various amount of the inhibitor were employed.
# Each reaction solution was incubated at 37° C. for 10 minutes and ethyl acetate (2 ml) chilled with ice was added for stopping the reaction. The organic layer was transferred to another test tube and evaporated to dryness under nitrogen. Each 50 μg of non radioactive testosterone, DHT, estradiol, androstenedione and androstandiol was added to the residue, and the wall of each test tube was washed with ethyl acetate (0.1 ml). The content of the tube was evaporated again and the residue was dissolved in chloroform (50 μl) and then applied to Whatman LK60DF silica plates (Whatman, N.J.), developing in chloroform:methanol (50:1). The bands of the substrates and products were identified by fluorescence (254 nm) and iodine, and the relevant silica gel was collected by scraping, mixed with toluene based liquid sincilator, and the radioactivity was counted. The radioactivities of DHT and androstandiol were combined for the calculation of 5α-reductase activity. […] The radioactivity for the control group was postulated as 100%.
# IC50 were calculated from the data obtained from the above experiments.
row,SMILES,IC50 [µM]
1,"C[C@]12CCC(C(=O)O)=CC1=CCC[C@@H]2NC(=O)c1cccc(OC2CCCCCC2)c1 [Example 46, (5S,10S)-5-(3'-cycloheptyloxybenzoylamino)-10-methyl-Δ^1(2),8(9)-octalin-2-carboxylic acid]",0.3
2,"CC12CCC(C(=O)O)=CC1=CCCC2NC(=O)c1cccc(O[C@H]2CC[C@H](C(C)(C)C)CC2)c1 (stereo partly drawn) [Example 23, 5-[3-(4-trans-t-butylcyclohexyloxy)benzoylamino]-10-methyl-Δ^1(2),8(9) -octalin-2-carboxylic acid]",0.3
3,"CC12CCC(C(=O)O)=CC1=CCCC2NC(=O)c1cccc(Oc2ccc(C3CCCCC3)cc2)c1 (centres unmarked) [Example 11, 5-[3'-(p-cyclohexylphenoxy)benzoylamino]-10-methyl-Δ^1(2),8(9) -octalin-2-carboxylic acid]",0.25
4,"CC12CCC(C(=O)O)=CC1=CCCC2NC(=O)c1cccc(Oc2ccc3c(c2)CCCC3)c1 (centres unmarked) [Example 14, 5-[3'-(5"",6"",7"",8""-tetrahydro-2""-naphtoxy)benzoylamino]-10-methyl-Δ^1(2),8(9) -octalin-2-carboxylic acid]",0.44
5,"CC12CCC(C(=O)O)=CC1=CCCC2NC(=O)c1cccc(Oc2ccccc2)c1 (centres unmarked) [Example 2, 5-(3'-phenoxybenzoylamino)-10-methyl-Δ^1(2),8(9) -octalin-2-carboxylic acid]",0.83
6,"CC12CCC(C(=O)O)=CC1=CCCC2NC(=O)c1cccc(OC2CCCCCCC2)c1 (centres unmarked) [Example 20, 5-(3'-cyclooctyloxybenzoylamino)-10-methyl-Δ^1(2),8(9) -octalin-2-carboxylic acid]",0.27
7,"CC(C)C(Oc1cccc(C(=O)N[C@H]2CCC=C3C=C(C(=O)O)CC[C@@]32C)c1)C(C)C [Example 48, (5S,10S)-5-[3'-(2"",4""-dimethyl-3""-pentyloxy)benzoylamino]-10-methyl-Δ^1(2),8(9) -octalin-2-carboxylic acid]",0.065
8,"CC12CCC(C(=O)O)=CC1=CCCC2NC(=O)c1cccc(CC2CCCCC2)c1 (centres unmarked) [Example 35, 5-(3'-cyclohexylmethylbenzoylamino)-10-methyl-Δ^1(2),8(9) -octalin-2-carboxylic acid]",0.16
9,"COc1ccc(C(=O)NC2CCC=C3C=C(C(=O)O)CCC32C)cc1OC1CCCCCC1 (centres unmarked) [Example 39, 5-(3'-cycloheptyloxy-4'-methoxybenzoylamino)-10-methyl-Δ^1(2),8(9) -octalin-2-carboxylic acid]",0.39
10,"CC(C)c1ccc(Oc2cc(Br)cc(C(=O)NC3CCC=C4C=C(C(=O)O)CCC43C)c2)cc1 (centres unmarked) [Example 37, 5-[3-bromo-5-(p-isopropylphenoxy)benzoylamino]-10-methyl-Δ^1(2),8(9) -octalin-2-carboxylic acid]",0.3
11,"C[C@]12CCC(C(=O)O)=CC1=CCC[C@@H]2NC(=O)c1cccc(OC(C2CC2)C2CC2)c1 [Example 47, (5S,10S)-5-(3'-dicyclopropylmethoxybenzoylamino)-10-methyl-Δ^1(2),8(9) -octalin-2-carboxylic acid]",0.16
12,"CC(C)(C)c1cc(C(=O)NC2CCC=C3C=C(C(=O)O)CCC32C)cc(C(C)(C)C)c1 (centres unmarked) [Example 43, 5-(3',5'-di-t-butylbenzoylamino)-10-methyl-Δ^1(2),8(9) -octalin-2-carboxylic acid]",0.23
13,"CC12CCC(C(=O)O)=CC1=CCCC2NC(=O)c1cccc(OCc2ccccc2)c1 (centres unmarked) [Example 15, 5-(3'-benzyloxy-benzoylamino)-10-methyl-Δ^1(2),8(9) -octalin-2-carboxylic acid]",4.21
14,"Cc1ccc(Oc2cccc(C(=O)NC3CCC=C4C=C(C(=O)O)CCC43C)c2)cc1 (centres unmarked) [Example 7, 5-[3'-(p-tolyloxy)benzoylamino]-10-methyl-Δ^1(2),8(9) -octalin-2-carboxylic acid]",0.21
15,"CC12CCC(C(=O)O)=CC1=CCCC2NC(=O)c1cccc(OC2CCCC2)c1 (centres unmarked) [Example 17, 5-(3'-cyclopentyloxybenzoylamino)-10-methyl-Δ^1(2),8(9) -octalin-2-carboxylic acid]",0.18
16,"CC(C)c1cccc(Oc2cccc(C(=O)NC3CCC=C4C=C(C(=O)O)CCC43C)c2)c1 (centres unmarked) [Example 5, 5-[3'-(m-isopropylphenoxy)benzoylamino]-10-methyl-Δ^1(2),8(9) -octalin-2-carboxylic acid]",0.46
17,"CC(C)c1ccc(Oc2cccc(C(=O)NC3CCC=C4C=C(C(=O)O)CCC43C)c2)cc1 (centres unmarked) [Example 4, 5-[3'-(p-isopropylphenoxy)benzoylamino]-10-methyl-Δ^1(2),8(9) -octalin-2-carboxylic acid]",0.81
18,"CC12CCC(C(=O)O)=CC1=CCCC2NC(=O)c1cccc(OCC2CCCCC2)c1 (centres unmarked) [Example 31, 5-(3'-cyclohexylmethoxybenzoylamino)-10-methyl-Δ^1(2),8(9) -octalin-2-carboxylic acid]",0.41
19,CC12CCC(C(=O)O)=CC1=CCCC2NC(=O)c1ccc(Oc2ccccc2)cc1 (centres unmarked) [Example 1],3.3
20,"Cc1c(OC2CCCCCC2)cccc1C(=O)NC1CCC=C2C=C(C(=O)O)CCC21C (centres unmarked) [Example 51, 5-(3'-cycloheptyloxy-2-methylbenzoylamino)-10-methyl -Δ^1(2),8(9) -octalin-2-carboxylic acid]",0.91
21,"CC(C)C1CCC(Oc2cccc(C(=O)NC3CCC=C4C=C(C(=O)O)CCC43C)c2)CC1 (centres unmarked) [Example 22, 5-[3-(4-isopropylcyclohexyloxy)benzoylamino]-10-methyl-Δ^1(2),8(9) -octalin-2-carboxylic acid]",0.52
22,"C[C@@]12CCC(C(=O)O)=CC1=CCC[C@H]2NC(=O)c1cccc(OC2CCCCCC2)c1 [Example 45, (5R,10R)-5-(3'-cycloheptyloxybenzoylamino)-10-methyl-Δ^1(2),8(9)-octalin-2-carboxylic acid]",0.61
23,"Cc1cc(C)cc(Oc2cccc(C(=O)NC3CCC=C4C=C(C(=O)O)CCC43C)c2)c1 (centres unmarked) [Example 13, 5-[3'-(3,5-dimethylphenoxy)benzoylamino]-10-methyl-Δ^1(2),8(9) -octalin-2-carboxylic acid]",0.66
24,"CC(C)Cc1ccc(Oc2cccc(C(=O)NC3CCC=C4C=C(C(=O)O)CCC43C)c2)cc1 (centres unmarked) [Example 9, 5-{3""-[p-(2'-methylpropyl]phenoxy)benzoylamino}-10-methyl-Δ^1(2),8(9) -octalin-2-carboxylic acid]",0.52
25,"C[C@]12CCC(C(=O)O)=CC1=CC[C@@H]2NC(=O)c1cccc(OC(C2CC2)C2CC2)c1 [Example 54, (1S,8S)-1-[3'-(dicyclopropylmethyloxy)benzoylamino]-8a-methyl-1,2,6,7-tetrahydroindene-5-carboxylic acid]",0.16
26,"CC12CCC(C(=O)O)=CC1=CCCC2NC(=O)c1ccc2c(c1)OC1(CCCCC1)O2 (centres unmarked) [Example 42, 5-(3',4'-cyclohexylidenedioxybenzoylamino)-10-methyl-Δ^1(2),8(9)-octalin-2-carboxylic acid]",0.77
